Results on 28 molecules are retold here after patent US20120245137A1 (Zalicus Pharmaceuticals Ltd., priority 2009, published 2012).

Holding throughout (type): cell-based
Experiment [1] deals with N-type calcium channel subunits (α1B, α2δ, and β3a) (Homo sapiens, UniProt Q00975). In words: Block of Cav2.2 channel, whole cell voltage clamp, manual and PatchXpress. The note with it: Table 5; table follows Assay Example 3 (whole cell voltage clamp / PatchXpress); assay not given. A digest of the protocol:
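Percent block taken as current amplitude ratio with versus without compound, applied in rising doses; IC50 fitted where one cell received multiple doses. Protocol: 50 ms pulses to +20 mV at 0.067 Hz from […] or −90 mV holding; P/n leak subtraction, no junction-potential correction; manual and PatchXpress recordings.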

Experiment [2] concerns the target human α1G T-type channels (Homo sapiens, UniProt O43497). In words: T-type calcium channel block, whole cell patch clamp, α1G. As to conditions: HEK cells stably expressing human α1G; mainly non-inactivated protocol; values above 10,000 nM represented as 10000. The essentials: (§1)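 Using standard patch-clamp, T-type currents were recorded from stably transfected human α1G or α1H HEK 293 cells. Separate non-inactivating and inactivation voltage protocols distinguished resting from voltage-dependent block by locally applied compound in 0.1-0.01% DMSO.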
(In general: In patch-clamp work, channel activity is measured electrically.)

Experiment [3] concerns the target human α1H T-type channels (Homo sapiens, UniProt O95180). In words: T-type calcium channel block, whole cell patch clamp, α1H. The note with it: HEK cells stably expressing human α1H; mainly non-inactivated protocol; values above 10,000 nM represented as 10000. A digest of the protocol:
as §1

Chain of N-type calcium channel subunits (α1B, α2δ, and β3a) (Q00975 whole entry): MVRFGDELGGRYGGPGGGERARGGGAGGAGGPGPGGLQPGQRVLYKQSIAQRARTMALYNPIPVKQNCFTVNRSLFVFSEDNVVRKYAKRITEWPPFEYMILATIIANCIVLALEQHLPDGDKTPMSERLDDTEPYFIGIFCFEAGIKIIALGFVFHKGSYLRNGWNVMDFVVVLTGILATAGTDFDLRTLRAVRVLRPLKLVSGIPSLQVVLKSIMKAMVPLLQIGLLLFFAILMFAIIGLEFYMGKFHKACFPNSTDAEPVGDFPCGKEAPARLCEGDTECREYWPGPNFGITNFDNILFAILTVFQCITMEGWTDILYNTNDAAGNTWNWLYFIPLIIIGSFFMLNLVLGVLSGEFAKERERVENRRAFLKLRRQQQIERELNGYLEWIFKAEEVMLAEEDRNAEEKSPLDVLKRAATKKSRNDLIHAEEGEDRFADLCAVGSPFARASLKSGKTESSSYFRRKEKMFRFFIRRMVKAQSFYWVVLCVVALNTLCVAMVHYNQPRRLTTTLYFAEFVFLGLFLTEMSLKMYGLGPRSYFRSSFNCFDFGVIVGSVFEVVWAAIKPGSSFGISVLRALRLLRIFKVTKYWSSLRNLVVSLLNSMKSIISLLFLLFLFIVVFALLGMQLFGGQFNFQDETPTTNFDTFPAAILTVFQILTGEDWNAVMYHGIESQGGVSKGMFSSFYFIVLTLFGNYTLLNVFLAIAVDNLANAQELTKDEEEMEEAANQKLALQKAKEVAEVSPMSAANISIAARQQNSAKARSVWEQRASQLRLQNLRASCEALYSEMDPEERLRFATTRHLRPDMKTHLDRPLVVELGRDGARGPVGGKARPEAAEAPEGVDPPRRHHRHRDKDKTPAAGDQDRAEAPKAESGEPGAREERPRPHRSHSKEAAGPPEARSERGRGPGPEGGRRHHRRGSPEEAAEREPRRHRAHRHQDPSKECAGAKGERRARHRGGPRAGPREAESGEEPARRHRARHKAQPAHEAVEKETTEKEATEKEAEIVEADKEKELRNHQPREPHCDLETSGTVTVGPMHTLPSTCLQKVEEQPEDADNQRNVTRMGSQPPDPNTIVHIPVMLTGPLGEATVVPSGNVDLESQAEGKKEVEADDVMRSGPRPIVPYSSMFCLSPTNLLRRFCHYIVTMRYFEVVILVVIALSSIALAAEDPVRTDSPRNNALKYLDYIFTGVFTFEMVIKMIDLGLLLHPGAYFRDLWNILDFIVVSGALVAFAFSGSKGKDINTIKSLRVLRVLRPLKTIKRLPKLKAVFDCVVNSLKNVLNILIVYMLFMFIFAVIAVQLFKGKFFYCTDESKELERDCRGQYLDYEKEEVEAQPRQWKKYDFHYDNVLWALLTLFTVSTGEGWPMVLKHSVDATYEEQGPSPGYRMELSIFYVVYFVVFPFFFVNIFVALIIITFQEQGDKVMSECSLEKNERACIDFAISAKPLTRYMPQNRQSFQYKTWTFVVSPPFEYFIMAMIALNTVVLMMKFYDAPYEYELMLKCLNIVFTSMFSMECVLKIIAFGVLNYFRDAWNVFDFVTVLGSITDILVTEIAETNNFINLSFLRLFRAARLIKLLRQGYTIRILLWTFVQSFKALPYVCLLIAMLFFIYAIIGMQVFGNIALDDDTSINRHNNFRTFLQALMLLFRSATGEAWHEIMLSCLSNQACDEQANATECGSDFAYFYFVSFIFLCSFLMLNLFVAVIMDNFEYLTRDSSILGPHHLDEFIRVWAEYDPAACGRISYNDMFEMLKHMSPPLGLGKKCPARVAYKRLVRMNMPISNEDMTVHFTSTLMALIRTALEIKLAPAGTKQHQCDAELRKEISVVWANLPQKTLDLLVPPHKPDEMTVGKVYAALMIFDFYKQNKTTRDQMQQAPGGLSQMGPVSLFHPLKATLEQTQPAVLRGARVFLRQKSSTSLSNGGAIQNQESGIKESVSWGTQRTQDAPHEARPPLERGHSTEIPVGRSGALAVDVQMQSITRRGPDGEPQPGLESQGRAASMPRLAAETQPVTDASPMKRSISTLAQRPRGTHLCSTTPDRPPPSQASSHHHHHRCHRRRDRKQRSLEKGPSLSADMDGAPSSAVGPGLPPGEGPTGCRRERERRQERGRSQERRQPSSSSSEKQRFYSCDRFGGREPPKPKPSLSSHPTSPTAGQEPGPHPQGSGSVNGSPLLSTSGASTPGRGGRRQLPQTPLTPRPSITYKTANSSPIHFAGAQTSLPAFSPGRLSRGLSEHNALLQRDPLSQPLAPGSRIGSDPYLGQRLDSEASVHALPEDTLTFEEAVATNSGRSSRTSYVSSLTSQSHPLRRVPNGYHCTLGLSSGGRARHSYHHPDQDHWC
Chain of N-type calcium channel subunits (α1B, α2δ, and β3a) (P54289 25-1103 partner): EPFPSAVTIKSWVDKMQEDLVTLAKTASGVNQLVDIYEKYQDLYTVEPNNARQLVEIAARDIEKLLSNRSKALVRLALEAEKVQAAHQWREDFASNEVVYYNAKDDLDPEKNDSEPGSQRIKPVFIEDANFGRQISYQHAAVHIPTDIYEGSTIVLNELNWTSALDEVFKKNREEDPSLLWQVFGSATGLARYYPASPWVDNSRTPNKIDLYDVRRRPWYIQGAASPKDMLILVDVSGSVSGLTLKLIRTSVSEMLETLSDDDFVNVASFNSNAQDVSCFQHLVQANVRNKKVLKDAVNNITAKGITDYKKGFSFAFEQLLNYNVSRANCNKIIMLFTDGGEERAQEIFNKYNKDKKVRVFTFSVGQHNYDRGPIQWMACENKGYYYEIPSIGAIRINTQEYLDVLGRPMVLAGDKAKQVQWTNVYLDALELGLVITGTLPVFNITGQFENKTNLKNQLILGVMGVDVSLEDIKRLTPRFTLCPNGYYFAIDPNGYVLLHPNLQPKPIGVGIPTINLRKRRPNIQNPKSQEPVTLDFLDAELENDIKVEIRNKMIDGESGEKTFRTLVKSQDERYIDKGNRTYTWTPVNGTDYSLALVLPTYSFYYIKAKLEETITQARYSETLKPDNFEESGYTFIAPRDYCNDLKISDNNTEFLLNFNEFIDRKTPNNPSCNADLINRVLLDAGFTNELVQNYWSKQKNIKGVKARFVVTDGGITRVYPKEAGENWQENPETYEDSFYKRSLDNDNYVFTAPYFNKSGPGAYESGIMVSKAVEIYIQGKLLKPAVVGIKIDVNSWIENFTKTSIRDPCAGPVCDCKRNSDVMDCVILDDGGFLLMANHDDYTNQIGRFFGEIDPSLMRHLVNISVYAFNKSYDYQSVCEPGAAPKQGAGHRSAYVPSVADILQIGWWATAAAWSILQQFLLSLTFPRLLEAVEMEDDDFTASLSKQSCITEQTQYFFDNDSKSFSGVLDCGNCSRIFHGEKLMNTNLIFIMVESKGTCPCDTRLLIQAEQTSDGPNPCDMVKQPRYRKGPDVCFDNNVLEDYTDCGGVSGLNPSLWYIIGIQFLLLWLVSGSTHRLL
Chain of N-type calcium channel subunits (α1B, α2δ, and β3a) (P54284 whole entry partner): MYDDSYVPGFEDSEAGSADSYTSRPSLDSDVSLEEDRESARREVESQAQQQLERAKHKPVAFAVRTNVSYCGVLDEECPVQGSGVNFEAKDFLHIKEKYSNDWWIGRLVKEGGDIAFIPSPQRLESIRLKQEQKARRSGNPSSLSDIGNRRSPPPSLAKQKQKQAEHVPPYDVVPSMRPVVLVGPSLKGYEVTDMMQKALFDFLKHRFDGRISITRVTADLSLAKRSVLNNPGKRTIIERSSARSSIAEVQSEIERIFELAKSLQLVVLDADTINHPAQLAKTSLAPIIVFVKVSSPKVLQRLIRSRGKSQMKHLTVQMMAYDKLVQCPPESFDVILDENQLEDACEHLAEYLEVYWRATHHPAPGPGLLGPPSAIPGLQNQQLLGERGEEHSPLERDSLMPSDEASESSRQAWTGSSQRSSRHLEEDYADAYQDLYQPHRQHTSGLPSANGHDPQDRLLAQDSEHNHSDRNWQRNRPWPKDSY

As for “2-(4,4-difluoropiperidin-1-yl)-N- ((1R,4R)-4-((3- (trifluoromethyl)phenylsulfonyl) methyl)cyclohexyl)acetamide [Compound 166]”, the IC50 in experiment [1] was 750 nM; in experiment [2], > 10000 nM; in experiment [3] it was 8470 nM.
As to “3-chloro-4-fluoro-N-((1R,4R)4-(3- (trifluoromethyl)phenylsulfonyl) cyclohexyl)benzamide [Compound 124]”, the IC50 in experiment [1] came to 510 nM; in experiment [2], 350 nM; in experiment [3], 540 nM.
For “3-chloro-5-fluoro-N-(1- methyl-4-(3-(trifluoromethyl) phenylsulfonyl)cyclohexyl) benzamide [Compound 318]” the same measures were 620 nM, 2430 nM and 1330 nM.
Consider “3-chloro-5-fluoro-N-((1S,4S)-4-((3- (trifluoromethyl)phenylsulfonyl) methyl)cyclohexyl)benzamide [Compound 137]”, for which the IC50 in experiment [1] stood at 320 nM; in experiment [2], 430 nM; in experiment [3] it was 330 nM.
For “4-chloro-2-(methylsulfonyl)-N- ((1R,4R)-4-(3- (trifluoromethyl)phenylsulfonyl) cyclohexyl)benzamide [Compound 121]” the same measures were 3730 nM, 720 nM and 930 nM.
For the molecule “4-chloro-2-methoxy-N-((1S,4S)-4- ((3- (trifluoromethyl)phenylsulfonyl) methyl)cyclohexyl)benzamide [Compound 140]”, the IC50 in experiment [1] came to 700 nM; in experiment [2] it was 1100 nM; in experiment [3] it was 700 nM.
As for “4-chloro-3-fluoro-N-((1R,4R)-4-(3- (trifluoromethyl)phenylsulfonyl) cyclohexyl)benzamide [Compound 123]”, the results for the IC50 in experiment [1], in experiment [2] and in experiment [3] were 660 nM, 30 nM and 440 nM, respectively.
The matching figures for “4-fluoro-3-(trifluoromethyl)-N- ((1S,4S)-4-((3- (trifluoromethyl)phenylsulfonyl) methyl)cyclohexyl)benzamide [Compound 138]”: 420 nM, 9880 nM and 2840 nM.
With `CN(CCC(C)(C)S(=O)(=O)c1cccc(C(F)(F)F)c1)C(=O)c1cn2ccc(C(F)(F)F)cc2n1` [Compound 514, N-methyl-N-(3-methyl-3-(3-(trifluoromethyl)phenylsulfonyl)butyl)-7-(trifluoromethyl)imidazo[1,2-a]pyridine-2-carboxamide], the IC50 in experiment [2] is 840 nM; in experiment [3], > 10000 nM.
Consider `CN(CCC(C)(C)S(=O)(=O)c1cccc(C(F)(F)F)c1)CC(=O)NC(C)(C)C` [Compound 516, N-tert-butyl-2-(methyl(3-methyl-3-(3-(trifluoromethyl)phenylsulfonyl)butyl)amino)acetamide], for which the IC50 in experiment [2] is 620 nM; in experiment [3], > 10000 nM.
For `CC(C)(CN[C@H]1CC[C@H](C(F)(F)F)CC1)S(=O)(=O)c1cccc(C(F)(F)F)c1` [Compound 517, (1R,4R)-N-(2-methyl-2-(3-(trifluoromethyl)phenylsulfonyl)propyl)-4-(trifluoromethyl)cyclo hexanamine], the values for the IC50 in experiment [2] and in experiment [3] were 170 nM and 6140 nM, respectively.
For `CC1(C)CCC(NCC(C)(C)S(=O)(=O)c2cccc(C(F)(F)F)c2)CC1` [Compound 518, 4,4-dimethyl-N-(2-methyl-2-(3-(trifluoromethyl)phenylsulfonyl)propyl) cyclohexanamine] the same measures were 600 nM and 4120 nM.
The matching figures for `CC(C)(CN[C@H]1CC[C@@H](C(F)(F)F)CC1)S(=O)(=O)c1cccc(C(F)(F)F)c1` [Compound 519, (1S,4S)-N-(2-methyl-2-(3-(trifluoromethyl)phenylsulfonyl)propyl)-4-(trifluoromethyl) cyclohexanamine]: 550 nM and 3280 nM.
For `CC(C)(CCNC(=O)c1ccc(Oc2ccc(F)cc2)cc1)S(=O)(=O)c1cccc(C(F)(F)F)c1` [Compound 520, 4-(4-fluorophenoxy)-N-(3-methyl-3-(3-(trifluoromethyl)phenylsulfonyl)butyl) benzamide] the same measures were 110 nM and 470 nM.
For `CC(C)(CNC(=O)c1ccc(Oc2ccc(F)cc2)cc1)S(=O)(=O)c1cccc(C(F)(F)F)c1` [Compound 521, 4-(4-fluorophenoxy)-N-(2-methyl-2-(3-(trifluoromethyl)phenylsulfonyl)propyl) benzamide], the IC50 worked out at 470 nM in experiment [2] and 910 nM in experiment [3].
The matching figures for `CC(C)(CCNC(=O)c1ncc(C(F)(F)F)cc1S(C)(=O)=O)S(=O)(=O)c1cccc(C(F)(F)F)c1` [Compound 523, N-(3-methyl-3-(3-(trifluoromethyl)phenylsulfonyl)butyl)-3-(methylsulfonyl)-5-(trifluorornethyl)picolinamide]: 560 nM and > 10000 nM.
For `CC(C)(C(=O)Nc1ccc(Oc2ccc(F)c(Cl)c2)nc1)S(=O)(=O)c1cccc(C(F)(F)F)c1` [Compound 524, N-(6-(3-chloro-4-tluorophenoxy)pyridin-3-yl)-2-methyl-2-(3-(trifluoromethyl)phenylsulfonyl)propanamide] the same measures were 380 nM and 2070 nM.
For `CC(C)(C(=O)Nc1ccc(Oc2ccc(C(F)(F)F)nc2)nc1)S(=O)(=O)c1cccc(C(F)(F)F)c1` [Compound 525, 2-methyl-2-(3-(trifluoromethyl)phenylsulfonyl)-N-(6-(6-(trifluoromethyl)pyridin-3-yloxy)pyridin-3-yl) propanamide] the same measures were 470 nM and 2880 nM.
As to `CC(C)(CCNC(=O)c1cc(C(F)(F)F)nc(S(C)(=O)=O)c1)S(=O)(=O)c1cccc(C(F)(F)F)c1` [Compound 526, N-(3-methyl-3-(3-(trifluoromethyl)phenylsulfonyl)butyl)-2-(methylsulfonyl)-6-(trifluoromethyl)isonicotinamide], the results for the IC50 in experiment [2] and in experiment [3] were 240 nM and 2930 nM, respectively.
For `CC(C)S(=O)(=O)c1cc(C(F)(F)F)cnc1C(=O)NCC(C)(C)S(=O)(=O)c1cccc(C(F)(F)F)c1` [Compound 527, 3-(isopropylsulfonyl)-N-(2-methyl-2-(3-(trifluoromethyl)phenylsulfonyl)propyl)-5-(trifluoromethyl)picolinamide] the same measures were 70 nM and > 10000 nM.
`CC(C)S(=O)(=O)c1cc(C(F)(F)F)cnc1C(=O)NCCC(C)(C)S(=O)(=O)c1cccc(C(F)(F)F)c1` [Compound 528, 3-(isopropylsulfonyl)-N-(3-methyl-3-(3-(trifluoromethyl)phenylsulfonyl)butyl)-5-(trifluoromethyl)picolinamide]: the IC50 in experiment [2] turned out to be 80 nM; in experiment [3], 2410 nM.
For `CC(C)(CCNC(=O)c1ccc(Cl)cc1S(C)(=O)=O)S(=O)(=O)c1cccc(C(F)(F)F)c1` [Compound 529, 4-chloro-N-(3-methyl-3-(3-(trifluoromethyl)phenylsulfonyl)butyl)-2-(methylsulfonyl)benzamide] the same measures were 780 nM and 9690 nM.
The matching figures for `O=C(N[C@H]1CC[C@@](F)(S(=O)(=O)c2cccc(C(F)(F)F)c2)CC1)[C@H]1CCCCN1` [Compound 531, (R)-N-((1S,4S)-4-fluoro-4-(3-(trifluoromethyl)phenylsulfonyl)cyclohexyl) piperidine-2-carboxamide]: 3560 nM and > 10000 nM.
For `O=C(N[C@H]1CC[C@@](F)(S(=O)(=O)c2cccc(C(F)(F)F)c2)CC1)[C@@H]1CCCCN1` [Compound 532, (S)-N-((1S,4R)-4-fluoro-4-(3-(trifluoromethyl)phenylsulfonyl)cyclohexyl) piperidine-2-carboxamide] the same measures were 1630 nM and > 10000 nM.
For the molecule `CC(C)(CCNC(=O)c1ccc(F)c(C(F)(F)F)c1)S(=O)(=O)c1cc(F)cc(C(F)(F)F)c1` [Compound 533, 4-fluoro-N-(3-(3-fluoro-5-(trifluoromethyl)phenylsulfonyl)-3-methylbutyl)-3-(trifluoromethyl)benzamide], the concentration for half-maximal inhibition (IC50) in experiment [2] is 350 nM; in experiment [3], 1080 nM.
As to `Cn1nc(C(F)(F)F)cc1C(=O)NCCC(C)(C)S(=O)(=O)c1cc(F)cc(C(F)(F)F)c1` [Compound 535, N-(3-(3-fluoro-5-(trifluoromethyl)phenylsulfonyl)-3-methylbutyl)-l-methyl-3-(trifluoromcthyl)-1H-pyrazole-5-carboxamide], the 50% inhibitory concentration (IC50) in experiment [2] was 700 nM; in experiment [3], 4140 nM.
In the case of `CC(C)(CCNC(=O)c1cc(C(F)(F)F)nc(S(C)(=O)=O)c1)S(=O)(=O)c1cc(F)cc(C(F)(F)F)c1` [Compound 536, N-(3-(3-fluoro-5-(trifluoromethyl)phenylsulfonyl)-3-methylbutyl)-2-(methylsulfonyl)-6-(trifluoromethyl) isonicotinamide], the IC50 is 640 nM in experiment [2] and > 10000 nM in experiment [3].
For `CC(C)(CCNC(=O)c1ccc(Oc2ccc(Cl)cc2)cc1)S(=O)(=O)c1cc(F)cc(C(F)(F)F)c1` [Compound 537, 4-(4-chlorophenoxy)-N-(3-(3-fluoro-5-(trifluoromethyl)phenylsulfonyl)-3-methylbutyl)benzamide] the same measures were 470 nM and 740 nM.

As a reminder, the IC50 is the point on the concentration scale where inhibition reaches its midpoint.
